Molecules are shown by their SMILES.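 The compound was tested at five concentrations on cells cultured in 96-well plates, with a 48-hour exposure period. The concentration for 50% growth inhibition is given as GI50.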 Active and inactive are the calls of the source. Cut-off read from the data, not from the text of the source: active = GI50 up to about 1.1 µM and inactive = higher. Some results are limits rather than exact numbers.

Common to all, as to assay: inhibition of tumour cell growth, NCI panel, 48 h
The subject of test [1] is HOP-18.
In test [2] the test system is SNB-78.
In test [3] the test system is K562.
Test [4] relates to SF-268.
Test [5] deals with Malme-3M.
Test [6] has as its system EKVX.
Test [7] deals with OVCAR-5.
Test [8] relates to OVCAR-3.
The test system of test [9] is SK-OV-3.
Test [10] concerns IGROV-1.
Test [11] has as its system HOP-92.
Test [12] deals with NCI/ADR-RES.
Test [13] concerns SN12C.
For test [14], the system named is UO-31.
The test system of test [15] is SK-MEL-5.
For test [16], the system named is UACC-257.
The test system of test [17] is HCC 2998.
Test [18] relates to HT-29.
The subject of test [19] is A549.
Test [20] relates to DMS-273.

On to `OCC#CCNCl`, for which the GI50 in test [1], in test [2], in [3], in [4], in test [5] and in test [6] was > 100 µM (inactive) in each case. Further, the GI50 in test [7], in test [8], in test [9], in test [10], in test [11] and in [12] was > 100 µM (inactive) throughout. Also, the GI50 was > 100 µM (inactive) in test [13]; > 100 µM (inactive) in test [14]; > 100 µM (inactive) in test [15]; > 73.6 µM (inactive) in [16]; > 100 µM (inactive) in [17]; > 28.1 µM (inactive) in [18]. For the same compound, the GI50 in test [19] and in test [20] was > 100 µM (inactive) in each case.
Consider `COc1cc([C@@H]2c3cc4c(cc3[C@@H](OC3OC5COC(C)OC5C(O)C3O)[C@H]3COC(=O)[C@H]23)OCO4)cc(OC)c1O` (stereo not given in full), for which the GI50 was 28.3 µM (inactive) in test [1]; 46.8 µM (inactive) in test [2]; 7.6 µM (inactive) in [4]; 9.44 µM (inactive) in test [5]; 27.7 µM (inactive) in test [6]; 25.2 µM (inactive) in test [7]. Moreover, the GI50 was 39.4 µM (inactive) in test [8]; 17.2 µM (inactive) in [9]; 31.4 µM (inactive) in test [10]; 9.2 µM (inactive) in test [11]; 65.5 µM (inactive) in [12]; 5.2 µM (inactive) in test [13]. In addition, the GI50 in test [14] is 42.3 µM (inactive); in test [15], 5.48 µM (inactive); in test [16] it was 37.2 µM (inactive); in [17], 9.02 µM (inactive); in test [18] it was 28.8 µM (inactive); in test [19], 3.61 µM (inactive). Besides, in test [20], the GI50 was 1.97 µM (inactive).
`CN(CCO)/N=N/c1n[nH]cc1C(N)=O`: the GI50 in [1], in test [2], in [3], in test [4], in test [5] and in [6] was > 100 µM (inactive) in each case. For the same compound, the GI50 in test [7], in test [8], in test [9], in [10], in test [11] and in [12] was > 100 µM (inactive) in each case. Besides, the GI50 in test [13], in [14], in [15], in test [16], in [17] and in test [18] was > 100 µM (inactive) throughout. Also, the GI50 in [19] and in test [20] was > 100 µM (inactive) each time.
For `CCC(C)C1NC(=O)CNC(=O)C2Cc3c([nH]c4cc(O)ccc34)[S+]([O-])CC(NC(=O)CNC1=O)C(=O)NC(CC(=O)O)C(=O)N1CC(O)CC1C(=O)NC(C(C)C(O)CO)C(=O)N2` (stereo not given), the GI50 was 25.8 µM (inactive) in test [1]; 0.664 µM (active) in test [2]; 3.93 µM (inactive) in [3]; 1.64 µM (inactive) in test [4]; 1.19 µM (inactive) in [5]; 1.98 µM (inactive) in test [6]. Besides, the GI50 in test [7] was 16.1 µM (inactive); in [8], 2.47 µM (inactive); in test [9], 13.2 µM (inactive); in [10], 4.39 µM (inactive); in [11], 1.68 µM (inactive); in test [12], 3.97 µM (inactive). The GI50 was 4.63 µM (inactive) in test [13]; 1.55 µM (inactive) in test [14]; 2.43 µM (inactive) in test [15]; 2.44 µM (inactive) in test [16]; 0.653 µM (active) in test [17]; 28.8 µM (inactive) in test [18]. Besides, the GI50 in [19] was 4.58 µM (inactive); in test [20], 2.23 µM (inactive).
Regarding `COc1ccc(CC(N)=O)cc1OC`, the GI50 in test [1] was 881 µM (inactive); in [2], > 1250 µM (inactive); in [3] it was > 1250 µM (inactive); in test [4], > 1250 µM (inactive); in [5], > 1250 µM (inactive); in test [6], > 1250 µM (inactive). Besides, the GI50 is > 853 µM (inactive) in [7]; > 1250 µM (inactive) in [8]; > 1250 µM (inactive) in test [9]; > 1250 µM (inactive) in test [10]; 753 µM (inactive) in test [11]; > 1250 µM (inactive) in test [12]. Also, the GI50 in [13] was > 1250 µM (inactive); in [14], > 1250 µM (inactive); in test [15], > 1250 µM (inactive); in test [16] it was 703 µM (inactive); in [17], > 1250 µM (inactive); in test [18] it was > 1250 µM (inactive). In addition, the GI50 in test [19] and in test [20] was > 1250 µM (inactive) throughout.
For `CCOC(=O)C(C#N)(Cc1c[nH]c2ccccc12)NC(C)=O` (stereo not given), the GI50 in test [3], in [4], in [5], in [6], in test [7] and in test [8] was > 100 µM (inactive) in each case. Moreover, the GI50 in [9], in [10], in test [11], in [13], in test [14] and in test [15] was > 100 µM (inactive) in each case. For the same compound, the GI50 in test [16], in test [17], in test [18] and in test [20] was > 100 µM (inactive) each time.
On to `CN(C)CCNC(=O)c1cccc2[nH]c(-c3ccccn3)nc12`, for which the GI50 in test [1] was 29 µM (inactive); in test [2], 34.9 µM (inactive); in test [3], > 55.6 µM (inactive); in test [4] it was 28 µM (inactive); in test [5] it was 24.9 µM (inactive); in [6], 41.4 µM (inactive). Further, the GI50 is 38.2 µM (inactive) in [7]; 30.7 µM (inactive) in test [8]; 32.6 µM (inactive) in [9]; 35.1 µM (inactive) in test [10]; 19.6 µM (inactive) in [11]; 26.1 µM (inactive) in [12]. Moreover, the GI50 in test [13] was 34.8 µM (inactive); in test [14], 16.8 µM (inactive); in test [15] it was 21.7 µM (inactive); in test [16], 28.6 µM (inactive); in test [17], 49 µM (inactive); in test [18], 19.6 µM (inactive). The GI50 in test [19] is 36.2 µM (inactive); in test [20], 26 µM (inactive).

These data come from ChEMBL document CHEMBL1201862, “PubChem BioAssay data set” (2004).
